Test results from US20210253595A1, “2-Aminopyrimidine Derivative and Preparation Method and Use Thereof” (Etern Biopharma (Shanghai) Co., Ltd., priority 2018, published 2021).

Assays:
[1] = target: IDH1 R132C (Homo sapiens, UniProt O75874, R132C); test: Effect on IDH1 R132C enzyme activity (NADPH consumption, diaphorase/resazurin fluorescence); type: biochemical; conditions: 80 ng IDH1 R132C, α-KG 2 mM, NADPH 20 μM, 60 min preincubation
Description: (§1) Test method: The enzyme activity of IDH1 converting α-KG to 2HG was measured by the consumption of NADPH. After the enzymatic reaction finished, the amount of residual NADPH can be reflected by fluorescence signal generated by the addition of catalytically excessive diphhorase and reazurin.
(§2) 50 μL mixed liquid of substrate α-KG and NADPH (final concentration of substrate α-KG was 2 mM, final concentration of NADPH was 20 μM), and the plate was incubated in dark for 60 min at room temperature. Detection reaction: 50 μL 1×detection buffer diluted 0.01 unit diabase and 30 μM resazurin were added into each well, and the mixture was incubated in dark at room temperature for 10 min. […] IC50 value was calculated by GraphPad Prism software.

[2] = target: IDH1 R132H (Homo sapiens, UniProt O75874, R132H); test: Effect on IDH1 R132H enzyme activity (NADPH consumption, diaphorase/resazurin fluorescence); type: biochemical; conditions: 100 ng IDH1 R132H, α-KG 1 mM, NADPH 20 μM, 60 min preincubation
Sequence of IDH1 R132H (O75874 whole entry R132H): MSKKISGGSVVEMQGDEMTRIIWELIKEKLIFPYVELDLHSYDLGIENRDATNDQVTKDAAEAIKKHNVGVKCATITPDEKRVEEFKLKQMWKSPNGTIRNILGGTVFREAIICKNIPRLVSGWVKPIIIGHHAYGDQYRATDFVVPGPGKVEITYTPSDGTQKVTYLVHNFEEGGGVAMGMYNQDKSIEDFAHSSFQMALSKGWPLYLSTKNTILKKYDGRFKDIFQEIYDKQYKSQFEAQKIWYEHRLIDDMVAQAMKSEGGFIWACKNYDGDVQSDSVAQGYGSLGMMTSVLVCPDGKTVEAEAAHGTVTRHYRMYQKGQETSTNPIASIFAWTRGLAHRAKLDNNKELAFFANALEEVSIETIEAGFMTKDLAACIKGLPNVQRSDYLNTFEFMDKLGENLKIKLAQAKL
Description: as §1
as §2, with “α-KG was 1 mM, final” for “α-KG was 2 mM, final”, “and the mixture was incubated” for “and the plate was incubated”

[3] = test system: 2HG of fibrosarcoma cell line HT1080 expressing IDH1 mutant IDH1-R132C; test: Inhibition of 2HG of fibrosarcoma cell line HT1080; type: cell-based; conditions: Homo sapiens, HT-1080; HT1080 cells, 48 hours with compound, 2HG in cell supernatant; read-out: HT1080 2HG inhibitory IC50
Description: In this experiment, the inhibitory activity of the compound of the disclosure on the concentration level of 2HG of the fibrosarcoma cell line HT1080 was determined by the following method.
The cells were digested with trypsin and inoculated into a 24 well cell culture plate with a density of 10000 cells/well. The cells were cultured in a 5% CO2 cell incubator at 37° C. After overnight culture, the test compound was added to the cells. The final concentration of DMSO was 0.1%, and DMSO was used as control. The plate was then placed in a cell incubator and cultured for 48 hours.
Detection of 2HG: 2-HG was measured by PicoProbe™ D-2-Hydroxyglutarate (D2HG) Assay Kit of BioVision. 500 uL cell supernatant was taken from each well and added to a 10 kD centrifuge column, 12000 g, and centrifuged for 10 minutes to remove the effect of enzyme activity. […] IC50 value was calculated by GraphPad Prism software.
The inhibition rate of the sample was obtained by the following formula: […]
IC50 value was calculated by GraphPad Prism software.

Sequence of IDH1 R132C (O75874 whole entry R132C): as the sequence (O75874 whole entry R132H) above, with H132C counted along it

| IC50 [1] | IC50 [2] | IC50 [3] | Structure (SMILES) |
| --- | --- | --- | --- |
| < 50 nM | < 50 nM | 140 nM | C[C@H](Nc1nccc(N2C(=O)OC3(COC3)[C@@H]2c2ccccc2)n1)c1ncn2c1CCc1cc(C(F)(F)F)ccc1-2 [Compound 16, (S)-8-phenyl-7-(2-(((S)-1-(7-trifluoromethyl-4,5-dihydroimidazo[1,5-a]quinolin-3-yl)ethyl)amino)pyrimidin-4-yl)-2,5-dioxa-7-azaspiro[3.4]octan-6-one] |
| < 50 nM | < 50 nM | 87 nM | CC(C)[C@H]1C(C)OC(=O)N1c1ccnc(N[C@@H](C)c2ncn3c2CCc2cc(C(F)(F)F)ccc2-3)n1 (stereo partly drawn) [Compound 17, (4S)-4-isopropyl-5-methyl-3-(2-(((S)-1-(7-trifluoromethyl-4,5-dihydroimidazo[1,5-a]quinolin-3-yl)ethyl)amino)pyrimidin-4-yl)oxazolidin-2-one] |
| < 50 nM | 50 to 500 nM | 26 nM | CC(C)[C@@H]1N(c2ccnc(N[C@@H](C)c3ncn4c3CCc3cc(C(F)(F)F)ccc3-4)n2)C(=O)OC1(C)C [Compound 18, (S)-4-isopropyl-5,5-dimethyl-3-(2-(((S)-1-(7-trifluoromethyl-4,5-dihydroimidazo[1,5-a]quinolin-3-yl)ethyl)amino)pyrimidin-4-yl)oxazolidin-2-one] |
| < 50 nM | < 50 nM | 7 nM | C[C@H](Nc1nccc(N2C(=O)OC[C@@H]2c2ccccc2)n1)c1ncn2c1CCc1cc(C(F)(F)F)ccc1-2 [Compound 20, (S)-4-phenyl-3-(2-(((S)-1-(7-trifluoromethyl-4,5-dihydroimidazo[1,5-a]quinolin-3-yl)ethyl)amino)pyrimidin-4-yl)oxazolidin-2-one] |
| < 50 nM | < 50 nM | 17 nM | C[C@H](Nc1nccc(N2C(=O)OC[C@@H]2[C@H](C)F)n1)c1ncn2c1CSc1cc(C(F)(F)F)ccc1-2 [Compound 21, (R)-4-((S)-1-fluoroethyl)-3-(2-(((S)-1-(7-trifluoromethyl-4H-benzo[b]imidazo[1,5-d][1,4]thiazin-3-yl)ethyl)amino)pyrimidin-4-yl)oxazolidin-2-one] |
| < 50 nM | 50 to 500 nM | 104 nM | C[C@H](Nc1nccc(N2C(=O)OC[C@@H]2C2CC2)n1)c1ncn2c1COc1cc(Cl)ccc1-2 [Compound 22, (S)-3-(2-(((S)-1-(7-chloro-4H-benzo[b]imidazo[1,5-d][1,4]oxazin-3-yl)ethyl)amino)pyrimidin-4-yl)-4-cyclopropyloxazolidin-2-one] |
| < 50 nM | < 50 nM | 22 nM | Cc1ccc2c(c1)CCc1c([C@H](C)Nc3nccc(N4C(=O)OC[C@@H]4[C@H](C)F)n3)ncn1-2 [Compound 23, (R)-4-((S)-1-fluoroethyl)-3-(2-(((S)-1-(7-methyl-4,5-dihydroimidazo[1,5-a]quinolin-3-yl)ethyl)amino)pyrimidin-4-yl)oxazolidin-2-one] |
| < 50 nM | < 50 nM | 167 nM | C[C@H](Nc1nccc(N2C(=O)OC[C@@H]2[C@H](C)F)n1)c1ncn2c1COc1cc(C3CC3)ccc1-2 [Compound 26, (R)-3-(2-(((S)-1-(7-cyclopropyl-4H-benzo[b]imidazo[1,5-d][1,4]oxazin-3-yl)ethyl)amino)pyrimidin-4-yl)-4-((S)-1-fluoroethyl)oxazolidin-2-one] |
| < 50 nM | < 50 nM | 13 nM | C[C@H](Nc1nccc(N2C(=O)OC[C@@H]2[C@H](C)F)n1)c1ncn2c1CCc1ccc(C(F)(F)F)cc1-2 [Compound 28, (R)-4-((S)-1-fluoroethyl)-3-(2-(((S)-1-(8-trifluoromethyl-4,5-dihydroimidazo[1,5-a]quinolin-3-yl)ethyl)amino)pyrimidin-4-yl)oxazolidin-2-one] |
